Laboratory results reported in ChEMBL document CHEMBL3431459, “Roche carnitine palmitoyltransferase modulator screening data (supplementary data associated with the publication CHEMBL2216752)”.
In brackets after ≈: the same amount, converted by molar mass.

Tests used:
[1] = SUPPLEMENTARY: Lyophilisation Solubility Assay (LYSA); assay type: physicochemical; details: read-out: Kinetic_solubility
[2] = biological target: T1, Carnitine O-palmitoyltransferase 1, muscle isoform (Homo sapiens, UniProt Q92523); experiment: SUPPLEMENTARY: Inhibition of Carnitine palmitoyltransferase 1, muscle isoform; design: species or system Muscle tissue
T1 sequence (Q92523 whole entry): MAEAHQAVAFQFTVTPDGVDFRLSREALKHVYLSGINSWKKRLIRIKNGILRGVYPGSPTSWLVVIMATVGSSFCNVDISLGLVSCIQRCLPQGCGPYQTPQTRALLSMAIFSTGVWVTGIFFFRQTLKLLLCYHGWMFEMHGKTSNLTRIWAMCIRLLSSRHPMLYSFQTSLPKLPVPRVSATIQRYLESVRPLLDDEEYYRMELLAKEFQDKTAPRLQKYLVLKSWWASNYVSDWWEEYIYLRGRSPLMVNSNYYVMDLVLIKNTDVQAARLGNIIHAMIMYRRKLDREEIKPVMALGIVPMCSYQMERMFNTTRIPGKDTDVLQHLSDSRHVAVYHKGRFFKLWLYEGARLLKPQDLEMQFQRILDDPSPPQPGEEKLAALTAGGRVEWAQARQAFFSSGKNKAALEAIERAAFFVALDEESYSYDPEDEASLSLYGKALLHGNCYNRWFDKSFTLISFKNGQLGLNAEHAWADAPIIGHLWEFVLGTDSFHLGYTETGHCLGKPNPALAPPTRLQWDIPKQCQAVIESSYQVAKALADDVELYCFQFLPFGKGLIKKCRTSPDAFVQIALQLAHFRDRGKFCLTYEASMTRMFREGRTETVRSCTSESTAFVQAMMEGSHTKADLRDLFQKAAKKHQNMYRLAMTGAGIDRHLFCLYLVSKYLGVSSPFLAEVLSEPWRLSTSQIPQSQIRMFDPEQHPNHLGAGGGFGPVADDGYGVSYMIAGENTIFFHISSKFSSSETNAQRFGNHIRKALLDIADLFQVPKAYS

[3] = SUPPLEMENTARY: PAMPA permeability assay; assay type: physicochemical; details: read-out: Permeability
[4] = biological target: T2, Carnitine O-palmitoyltransferase 2, mitochondrial (Rattus norvegicus, UniProt P18886); experiment: (§1) SUPPLEMENTARY: Inhibition of Carnitine palmitoyltransferase 2
T2 sequence (P18886 whole entry): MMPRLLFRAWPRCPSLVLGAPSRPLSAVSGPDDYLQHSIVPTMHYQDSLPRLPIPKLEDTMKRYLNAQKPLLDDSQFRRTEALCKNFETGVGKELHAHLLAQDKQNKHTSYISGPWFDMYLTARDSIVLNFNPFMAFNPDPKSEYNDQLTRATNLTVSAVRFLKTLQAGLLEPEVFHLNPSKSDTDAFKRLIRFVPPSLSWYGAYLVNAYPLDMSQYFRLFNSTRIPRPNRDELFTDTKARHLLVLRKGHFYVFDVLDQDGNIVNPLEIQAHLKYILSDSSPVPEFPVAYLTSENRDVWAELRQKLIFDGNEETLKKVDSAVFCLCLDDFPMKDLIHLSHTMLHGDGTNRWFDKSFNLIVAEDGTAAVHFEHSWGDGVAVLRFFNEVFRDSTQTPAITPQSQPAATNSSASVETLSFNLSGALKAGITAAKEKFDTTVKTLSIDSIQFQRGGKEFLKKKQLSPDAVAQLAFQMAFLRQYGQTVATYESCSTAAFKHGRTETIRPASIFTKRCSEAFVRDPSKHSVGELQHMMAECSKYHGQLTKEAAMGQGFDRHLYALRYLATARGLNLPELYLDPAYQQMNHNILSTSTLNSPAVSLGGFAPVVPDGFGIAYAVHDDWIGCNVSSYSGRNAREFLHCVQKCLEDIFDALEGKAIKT

[5] = biological target: T3, Carnitine O-palmitoyltransferase 2, mitochondrial (Homo sapiens, UniProt P23786); experiment: as §1
T3 sequence (P23786 whole entry): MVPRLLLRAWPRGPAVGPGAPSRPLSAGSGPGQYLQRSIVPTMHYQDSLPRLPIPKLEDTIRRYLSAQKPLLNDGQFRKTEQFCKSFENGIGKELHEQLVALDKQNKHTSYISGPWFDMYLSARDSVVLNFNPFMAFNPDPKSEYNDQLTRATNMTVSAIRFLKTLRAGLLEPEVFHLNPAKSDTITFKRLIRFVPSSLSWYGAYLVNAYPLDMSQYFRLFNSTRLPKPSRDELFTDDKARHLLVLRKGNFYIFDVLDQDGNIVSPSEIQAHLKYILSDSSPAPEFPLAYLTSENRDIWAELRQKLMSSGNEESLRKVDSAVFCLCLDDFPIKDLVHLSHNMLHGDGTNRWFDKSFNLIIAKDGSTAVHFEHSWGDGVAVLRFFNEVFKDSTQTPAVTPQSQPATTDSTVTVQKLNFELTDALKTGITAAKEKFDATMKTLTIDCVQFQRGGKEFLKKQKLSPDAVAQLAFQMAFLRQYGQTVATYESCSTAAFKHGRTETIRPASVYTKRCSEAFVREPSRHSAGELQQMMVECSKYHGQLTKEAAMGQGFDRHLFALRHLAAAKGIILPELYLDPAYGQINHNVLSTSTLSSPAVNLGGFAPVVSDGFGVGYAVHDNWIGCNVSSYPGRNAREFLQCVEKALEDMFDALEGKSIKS

[6] = biological target: T4, Carnitine O-palmitoyltransferase 1, liver isoform (Homo sapiens, UniProt P50416); experiment: (§2) SUPPLEMENTARY: Inhibition of Carnitine palmitoyltransferase 1, liver isoform
T4 sequence (P50416 whole entry): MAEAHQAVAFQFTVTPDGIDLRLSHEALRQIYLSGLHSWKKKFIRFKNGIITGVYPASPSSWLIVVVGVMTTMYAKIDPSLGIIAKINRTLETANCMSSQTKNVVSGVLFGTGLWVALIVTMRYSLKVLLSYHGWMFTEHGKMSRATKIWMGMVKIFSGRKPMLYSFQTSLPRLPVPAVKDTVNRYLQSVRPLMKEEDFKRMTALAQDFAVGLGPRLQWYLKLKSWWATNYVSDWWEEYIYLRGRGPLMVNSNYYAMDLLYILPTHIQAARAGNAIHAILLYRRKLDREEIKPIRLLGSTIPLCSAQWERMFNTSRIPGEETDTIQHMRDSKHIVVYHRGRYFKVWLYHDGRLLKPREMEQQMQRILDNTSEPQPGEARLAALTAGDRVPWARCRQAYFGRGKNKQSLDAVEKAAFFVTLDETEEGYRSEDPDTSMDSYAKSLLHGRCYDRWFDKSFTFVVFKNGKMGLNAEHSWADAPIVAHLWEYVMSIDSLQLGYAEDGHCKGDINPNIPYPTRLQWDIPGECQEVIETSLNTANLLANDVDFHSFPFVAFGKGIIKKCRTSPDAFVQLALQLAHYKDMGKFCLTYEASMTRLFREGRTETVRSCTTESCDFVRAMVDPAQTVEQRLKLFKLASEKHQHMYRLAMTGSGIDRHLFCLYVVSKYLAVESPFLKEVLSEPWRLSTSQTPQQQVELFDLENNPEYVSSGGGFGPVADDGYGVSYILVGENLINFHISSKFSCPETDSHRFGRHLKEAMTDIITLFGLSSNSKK

[7] = biological target: T5, Carnitine O-palmitoyltransferase 1, liver isoform (Rattus norvegicus, UniProt P32198); experiment: as §2
T5 sequence (P32198 whole entry): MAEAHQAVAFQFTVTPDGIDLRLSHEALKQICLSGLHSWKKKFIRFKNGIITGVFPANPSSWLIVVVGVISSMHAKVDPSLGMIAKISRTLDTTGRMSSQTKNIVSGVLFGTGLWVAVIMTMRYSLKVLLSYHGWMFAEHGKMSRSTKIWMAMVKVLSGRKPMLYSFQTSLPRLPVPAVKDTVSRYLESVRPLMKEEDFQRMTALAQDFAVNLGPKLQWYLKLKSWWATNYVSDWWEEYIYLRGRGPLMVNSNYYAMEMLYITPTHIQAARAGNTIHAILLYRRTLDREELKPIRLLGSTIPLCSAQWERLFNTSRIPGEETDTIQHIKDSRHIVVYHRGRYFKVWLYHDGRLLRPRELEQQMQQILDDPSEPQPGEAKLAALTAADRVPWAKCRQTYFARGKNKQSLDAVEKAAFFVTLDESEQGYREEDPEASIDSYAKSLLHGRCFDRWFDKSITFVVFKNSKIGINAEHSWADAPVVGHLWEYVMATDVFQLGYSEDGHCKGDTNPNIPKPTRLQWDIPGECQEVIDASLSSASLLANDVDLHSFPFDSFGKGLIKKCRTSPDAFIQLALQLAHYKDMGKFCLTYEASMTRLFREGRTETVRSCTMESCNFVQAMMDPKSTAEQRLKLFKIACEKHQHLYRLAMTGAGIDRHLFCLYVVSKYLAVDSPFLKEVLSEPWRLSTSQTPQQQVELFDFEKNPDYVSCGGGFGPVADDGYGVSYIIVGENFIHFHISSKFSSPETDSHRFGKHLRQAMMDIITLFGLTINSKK

Row | Structure (SMILES) | solubility kinetic [1] [µg/mL] | IC50 [2] [µM] | Papp [3] [×10⁻⁶ cm/s] | IC50 [4] [µM] | IC50 [5] [µM] | IC50 [6] [nM] | IC50 [7] [nM]
1 | COc1ccc(Cl)cc1S(=O)(=O)c1cn(CC(N)=O)c2ccc(C(=O)Nc3ccccc3)cc12 | 2 (≈ 4.02 µM) | > 100 | 0.3 | > 100 | > 100 | 12.8 | 17.1
2 | COc1ccc(Cl)cc1S(=O)(=O)N1CC(C)c2ccc(C(=O)Nc3ccc(C(=O)O)cc3)cc21 (configuration not stated) | 12 (≈ 24 µM) | 2.24 | 2.4 | 1.66 | 0.672 | 62.2 | 21
3 | O=C(Nc1ccc(C(=O)O)c(F)c1)c1ccc2c(c1)N(S(=O)(=O)c1cc(Cl)cc(Cl)c1)CCC2 | 7 (≈ 13.4 µM) | 19.6 | 4.82 | > 100 | > 100 | 111 | 53.4
4 | COc1ccc(C)cc1S(=O)(=O)n1ccc2ccc(C(=O)Nc3ccc(C(=O)O)cc3)cc21 | < 1 | 2.65 | 1.23 | 2.67 | 1.07 | 29.4 | 11.9
5 | COc1ccc(Cl)cc1Cn1ccc2ccc(C(=O)Nc3nc(CC(=O)O)cs3)cc21 | 13 (≈ 28.5 µM) | 24.2 | 1.14 | > 100 | > 100 | 170 | 90.5
6 | Cc1cc(C)cc(S(=O)(=O)n2ccc3ccc(C(=O)Nc4ccc(CC(=O)O)cc4)cc32)c1 | 6 (≈ 13 µM) | 0.95 | 1.89 | > 100 | > 100 | 152 | 151
7 | COc1ccc(Cl)cc1S(=O)(=O)c1nn(CCC(=O)O)c2ccc(C(=O)Nc3ccccc3)cc12 | 25 (≈ 48.6 µM) | 49.4 | 0.67 | > 100 | > 100 | 14.7 | 6.6
8 | COc1ccc(Cl)cc1S(=O)(=O)N1CCOc2c(F)cc(C(=O)Nc3ccc(C(=O)O)cc3)cc21 | 5 (≈ 9.6 µM) | > 100 | 2.44 | > 100 | 11.3 | 77.5 | 45.2
9 | COc1ccc(Cl)cc1S(=O)(=O)N1CCOc2ccc(C(=O)Nc3ccc(CCC(=O)O)cc3)cc21 | 4 (≈ 7.53 µM) | 0.932 | 3.3 | > 100 | > 100 | 175 | 106
10 | Nc1cc(-c2noc([C@H]3CCCCN3C(=O)COc3ccccc3)n2)ccn1 | 106 (≈ 279 µM) | > 100 | 5.3 | 35.2 | 19.5 | 108 | 250
11 | COc1ccc(Cl)cc1Cc1cn(C)c2ccc(C(=O)Nc3ccc(C(=O)O)cc3)cc12 | 23 (≈ 51.2 µM) | 2.33 | 0.47 | 9.31 | 1.35 | 39.9 | 102
12 | COc1ccc(Cl)cc1S(=O)(=O)N1CCCCc2ccc(C(=O)Nc3ccc(C(=O)O)c(F)c3)cc21 | 345 (≈ 647 µM) | 9.1 | 2.15 | 46.5 | 28.1 | 131 | 134
13 | O=C(Cn1cc(-c2ccccc2)c2ccccc21)Nc1ccc(C(=O)O)cc1 | 19 (≈ 51.3 µM) | 0.512 | 1.73 | > 100 | 15.4 | 474 | 1390
14 | COc1ccc(Cl)cc1S(=O)(=O)N1CCNc2ccc(C(=O)Nc3ccc(C(=O)O)cc3)cc21 | 1 (≈ 1.99 µM) | 11.8 | 0.81 | > 100 | > 100 | 71.3 | 189
15 | COc1ccc(Cl)cc1S(=O)(=O)N1CCOc2c1cc(C(=O)Nc1ccc(C(=O)O)cc1)cc2C(F)(F)F | 103 (≈ 180 µM) | > 100 | 2.65 | 5.23 | 2.32 | 77.1 | 156
16 | COc1ccc(Cl)cc1S(=O)(=O)c1c[nH]c2ccc(C(=O)Nc3ccccc3)cc12 | 1 (≈ 2.27 µM) | > 100 | 0.06 | > 100 | > 100 | 114 | 83.8
